Consider 93 compounds from PubChem BioAssay AID1963597 (National Center for Advancing Translational Sciences (NCATS), 2024).

The series concerns human liver microsomes, metabolic stability half-life. As to the kind of experiment: NCATS Human Liver Microsomal (HLM) Stability Profiling. As to conditions: higher = more stable; screened at 1 µM (by protocol). The procedure, abridged:
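Half-life derived from parent loss over 0–60 min (0, 5, 10, 15, 30, 60 min) at 37 °C. Incubations: 0.5 mg/mL microsomes, 1 µM test article, NADPH regeneration, pH 7.4 phosphate; quenched in acetonitrile containing albendazole, analysed by MS.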
Regarding `CCOC(=O)C1(CCOc2ccccc2)CCN(Cc2ccc(O)c(Cl)c2)CC1`, the half-life (in general, how long it takes for the measured level to halve) was 5.08 min.
The same measure for `CCCCCOC(=O)Nc1nc(=O)n([C@@H]2O[C@H](C)[C@@H](O)[C@H]2O)cc1F`: more than 120 min; for `C/C(=C(/OCCOc1ccc(Cl)cc1)c1ccc(Cl)cc1Cl)n1ccnc1`: 10.1 min.
Regarding `O=C1COc2nccc(-c3ccccc3F)c2CN1Cc1cc(C(F)(F)F)cc(C(F)(F)F)c1`, the half-life was found to be 2.5 min.
The same measure for `NC(=O)c1c(OCc2c(F)cc(Br)cc2F)nsc1NC(=O)NCCCCN1CCCC1`: more than 120 min; for `CCCC(Nc1nc(-c2ccc(NC(=O)NCC)c(OC)c2)ncc1C)c1cccnc1` (stereo not drawn): 30.5 min.
The value for `COc1cc(=O)n2c(c1C(=O)NCc1ccc3c(c1)OCO3)CCN(C(=O)c1ccc(C)cc1C)CC2` was 34.4 min; that for `O=S(=O)(O)c1cc(I)c(O)c2ncccc12` was more than 120 min.
Regarding `Clc1ccc2c(c1)Nc1ccccc1S2`, the half-life worked out at 6.28 min.
The same measure for `CCCc1nn(C)c2c(=O)[nH]c(-c3cc(S(=O)(=O)N4CCN(C)CC4)ccc3OCC)nc12`: 18.7 min; for `CCCCOCCOC(=O)c1cccnc1`: 0.66 min; for `COC(=O)c1ccc([C@H]2c3[nH]c4ccccc4c3C[C@H](C(=O)OC)N2C(=O)CCl)cc1`: 8.55 min.
Regarding `NC(=Nc1ccc(CCNCc2cccc(Cl)c2)cc1)c1cccs1`, the half-life was more than 120 min.
The value for `O=C1CC2(CCCC2)CC(=O)N1CCNC[C@H]1COc2ccccc2O1` was 8.26 min; that for `Nc1nc2c(c(N3CCNCC3)n1)CCC1=C2[C@@H]2CCCC[C@@H]2O1` was more than 120 min.
`O=C(c1ccccn1)N(Cc1cccs1)C1(C(=O)NC2CCCCC2)CCCCC1` showed a half-life of 1.6 min.
Regarding `O=c1c2cccnc2n(-c2cccc([N+](=O)[O-])c2)c(=O)n1Cc1ccncc1`, the half-life turned out to be 24.5 min.
The value for `COc1cc(Nc2nc3c(s2)CCCC3c2ccccc2)ccc1-n1cnc(C)c1` (stereo not drawn) was 31 min.
`OCCN1CCN(CCCN2c3ccccc3C=Cc3ccccc32)CC1` showed a half-life of more than 120 min.
`N#Cc1c[nH]c2c(C(=O)N3CCN(CCc4ccc(F)cc4)CC3)cccc12` had a half-life of 29.8 min.
The same measure for `C=C1C(=O)O[C@@H]2[C@H]3O[C@]3(C)CC/C=C(\C)CC[C@@H]12`: more than 120 min; for `CCCCCC(=O)O[C@]1(C(C)=O)CC[C@H]2[C@@H]3CCC4=CC(=O)CC[C@]4(C)[C@H]3CC[C@@]21C`: 1.86 min.
The same measure for `Cc1cc(C)c(/C=C2\C(=O)Nc3ccccc32)[nH]1`: 11 min; for `NC(N)=Nc1nc(CSCC/C(N)=N/S(N)(=O)=O)cs1`: more than 120 min; for `CNC(=O)c1cnn(-c2nc(N)c3ncn([C@@H]4O[C@H](CO)[C@@H](O)[C@H]4O)c3n2)c1`: more than 120 min.
The same measure for `CC(CN1c2ccccc2Sc2ccccc21)N(C)C` (stereo not drawn): 32.3 min.
`CN1CCC(Nc2ncc3ncnc(Nc4ccc(F)c(Cl)c4)c3n2)CC1` displayed a half-life of 116 min.
The value for `COc1ccccc1N1CCN(CCCNc2cc(=O)n(C)c(=O)n2C)CC1` was more than 120 min; that for `Cc1cc2c(F)c(Oc3ncnn4cc(OCC(C)OC(=O)C(C)N)c(C)c34)ccc2[nH]1` (stereo not drawn) was 1.26 min.
The same measure for `COc1ccc2c(c1)c(CC(=O)OCC(=O)O)c(C)n2C(=O)c1ccc(Cl)cc1`: more than 120 min; for `O=C(Nc1cccnc1)N1CCC(Cc2cccc(Oc3ccc(C(F)(F)F)cn3)c2)CC1`: 33.9 min.
Consider `O=C(c1ccc(F)cc1)C1CCN(CCn2c(=S)[nH]c3ccccc3c2=O)CC1`, for which the half-life stood at 8.98 min.
The value for `CCN(CC)CCCN(c1ccccc1)C1Cc2ccccc2C1` was 11.5 min.
The value for `N#CC1C(=O)Nc2scc(-c3ccc(-c4ccccc4O)cc3)c2C1=O` (stereo not drawn) was more than 120 min; that for `Cc1nc(C2CCCCC2)c(-c2ccc(S(N)(=O)=O)c(F)c2)o1` was 30.7 min.
The value for `O=C(N[C@H]1CN2CCC1CC2)c1cc2cccc(Cl)c2s1` was more than 120 min; that for `CCOP(=S)(OCC)Oc1cc(Cl)c(Br)cc1Cl` was 57.6 min; that for `CCN1CCN(C(=O)C2Cn3cccc3C(=O)N2CC(C)C)CC1` (stereo not drawn) was more than 120 min.
`O=C(NCc1ccco1)c1ccc2c(c1)N(Cc1cccc(Cl)c1)C(=O)c1ccccc1S2=O` (stereo not drawn): the half-life was 0.62 min.
The same measure for `CC(C)NC(=O)c1ccc(C=O)cc1`: 3.1 min; for `CC(C)(C)c1coc([C@@H]2COCCN2Cc2ccc(C(=O)O)cc2)n1`: 80.9 min; for `COP(N)(=O)SC` (stereo not drawn): 51.6 min.
The same measure for `N#C/C(=C1\SCC(c2ccccc2Cl)S1)n1ccnc1` (stereo not drawn): 86.2 min; for `Cn1c(N2CCCCS2(=O)=O)nc(C(=O)NCc2ccc(F)cc2)c(O)c1=O`: more than 120 min.
The same measure for `CCc1nn(CCCN2CCN(c3cccc(Cl)c3)CC2)c(=O)n1CCOc1ccccc1`: 0.98 min; for `O=C(CSc1nnc(-c2cccc(F)c2)c(-c2cccc(F)c2)n1)NC1CCCCC1`: 10.8 min.
In turn, `CCOC(=O)c1c(C)nn(-c2cccc([N+](=O)[O-])c2)c1C` displayed a half-life of 2.08 min.
The same measure for `CC(C)c1ccc(NC(=O)C(c2ccccc2)N(C)C(=O)Cc2c[nH]c3ccccc23)cc1` (stereo not drawn): 7.38 min.
The same measure for `CN(C)CC/C=C1\c2ccccc2Sc2ccc(Cl)cc21`: 24.3 min; for `O=C(CCC1CCN(Cc2ccccc2)CC1)c1ccc2c(c1)NCCCC2`: 5.22 min.
`Cc1nc(N)nc(N)c1-c1ccc(Cl)c(Cl)c1` gave a half-life of more than 120 min.
The same measure for `C[C@H]1COc2c(C3(N)CC3)c(F)cc3c(=O)c(C(=O)O)cn1c23`: more than 120 min.
`O=C(Nc1ccc(-c2ccnc(Nc3ccc(N4CCOCC4)cc3)n2)cc1)C1CCCN1` (stereo not drawn) gave a half-life of more than 120 min.
The value for `Cn1nnc2c(C(N)=O)ncn2c1=O` was 21.1 min; that for `CC(C)CCCC(C)N` (stereo not drawn) was more than 120 min; that for `C1COC(NC(C2CC2)C2CC2)=N1` was more than 120 min.
The same measure for `CCc1ccc(-n2c(SCc3cccc(F)c3)nc3[nH]ncc3c2=O)cc1`: 80.5 min; for `Clc1cccc(C(c2ccc3nc[nH]c3c2)n2ccnc2)c1` (stereo not drawn): more than 120 min; for `COc1ccccc1N1CCNCC1`: more than 120 min.
The value for `CC(C)(C)Oc1ccc(OCC2Cc3ccccc3CN2C(=O)c2cccc3ccccc23)cc1` (stereo not drawn) was 5.19 min; that for `COc1cc(N2CCN(C)CC2)ccc1Nc1nccc(-c2cn(C)c3cnccc23)n1` was more than 120 min.
`Cc1ccc(COC(=O)N2CC[C@@H](CNc3ncccn3)[C@@H](F)C2)cc1` had a half-life of 64.9 min.
The same measure for `Cc1cn([C@@H]2O[C@H](CO)[C@@H](O)[C@H]2F)c(=O)[nH]c1=O`: 22.1 min; for `COP(=S)(OC)Oc1ccc(SC)c(C)c1`: 4.44 min; for `COc1ccc(-c2cc3onc(-c4ccncc4)c3c(=O)n2C)cc1`: more than 120 min.
For `O=C(O)CN1C(=O)c2cccc3cccc(c23)C1=O`, the half-life is more than 120 min.
`C[C@@H]1CCC[C@H](C)N1CCCC(O)(c1ccccc1)c1ccccn1` (stereo partly drawn) displayed a half-life of more than 120 min.
The same measure for `CCOP(=S)(OCC)O/N=C(\C#N)c1ccccc1`: 8.67 min; for `COC(=O)[C@@H]1[C@H]2C[C@H]3c4[nH]c5ccccc5c4CCN3C[C@@H]2CC[C@@H]1O`: 83.9 min.
The value for `CC1=C(C(=O)Nc2cccc(-c3cn[nH]c3)c2)C(c2ccccc2Cl)N=C(Nc2nc3ccccc3o2)N1` (stereo not drawn) was 49.1 min; that for `CC1(C)CC(=O)c2c(C(F)(F)F)nn(-c3ccc(C(N)=O)c(NC4CCC(OC(=O)CN)CC4)c3)c2C1` (stereo not drawn) was 1.57 min.
`CC(C)COC(=O)c1ccc(N)cc1` gave a half-life of 11.4 min.
`CC1(c2ccccc2)N(Cc2ccccc2)C(=O)OC12CCN(Cc1ccc(C(=O)O)cc1)CC2` (stereo not drawn) registered a half-life of more than 120 min.
The value for `N#Cc1cccc(C(=O)Nc2ccc3ncnc(N4CCCCC4)c3c2)c1` was 12.4 min; that for `Oc1cccc(C2NC(=S)Nc3cccc(F)c32)c1` (stereo not drawn) was more than 120 min; that for `Cc1cccc(/C=N/Nc2cc(N3CCOCC3)n3nc(-c4ccncc4)cc3n2)c1` was 23.1 min.
The value for `CC(C)c1nn(-c2c(Cl)cccc2Cl)c2nc(Cc3ccc(OCCO)cc3)[nH]c(=O)c12` was 32.2 min; that for `CCOc1ccc(CNC(=O)Cn2c(=O)c3cccn3c3ccc(F)cc32)cc1OC` was 80.7 min; that for `CN1CCC(COc2cnc(-c3cccc(Cn4nc(-c5cccc(C#N)c5)ccc4=O)c3)nc2)CC1` was more than 120 min.
The same measure for `c1ccc(N2CCN(CCc3nn[nH]n3)CC2)cc1`: more than 120 min; for `CCc1cccc(CC)c1NC(=O)N1Cc2[nH]nc(NC(=O)c3ccc(N4CCN(C)CC4)cc3)c2C1`: more than 120 min; for `CN1CCN(C(=O)c2ccc3nccn3c2)CC1`: more than 120 min.
`CCCSP(=S)(OCC)Oc1ccc(SC)cc1` (stereo not drawn) returned a half-life of more than 120 min.
The same measure for `O=C(O)c1ccc[n+]([O-])c1`: 106 min; for `COc1ccc(CNC(=O)c2cnn(-c3ccc(C)cc3)c2C2CCN(C(=O)OC(C)(C)C)CC2)cc1`: 0.7 min.
The same measure for `CCCCN(CCCC)C(=O)CN1C[C@H](c2ccc3c(c2)OCO3)[C@@H](C(=O)O)[C@@H]1c1ccc(OC)cc1`: 72.6 min.
`O=C(Cn1ccnc1[N+](=O)[O-])NCc1ccccc1` gave a half-life of more than 120 min.
The value for `CCCOC(C(=O)OC1CCN(C)CC1)(c1ccccc1)c1ccccc1` was 11.3 min.
The value for `CC(=O)N1CCCc2cc(S(=O)(=O)Nc3ccc(OC(F)(F)F)cc3)ccc21` was 20.9 min; that for `S=C(NCc1ccc2c(c1)OCO2)N1CCN(c2ncnc3c2oc2ccccc23)CC1` was 18.6 min; that for `NC1=NCC2c3ccccc3Cc3ccccc3N12` (stereo not drawn) was more than 120 min.
Consider `CC(C)(C)NCc1cc(Nc2ccnc3cc(Cl)ccc23)c2c(c1O)CCCC2`, for which the half-life is more than 120 min.
The same measure for `O=C(O)c1ccccc1-c1c2cc(Br)c(=O)c(Br)c-2oc2c(Br)c(O)c(Br)cc12`: more than 120 min.
